IC50 and EC50 data for ten compounds are collected here from US10981932B2, “Macrocyclic indole derivatives” (Bayer Aktiengesellschaft, priority 2016, dated 2021).

One series has as its system A2780. Nature of the series: Anti-proliferative effect (CellTiter-Glo, 72 h), A2780. Format: cell-based. The following applies: A2780 cells, median, read-out: IC50 antiproliferation assay A2780 [M] (median). The procedure, abridged: (§1)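 Anti-proliferative activity is derived from ATP-based luminescence (CellTiter-Glo) in cells exposed to compound for 72 h at 37 °C, set against a time zero plate read at seeding.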
(Cellular ATP, detected with luciferase, serves as a proxy for viable cell number.)

Series [1] concerns SUDHL5. Nature of the series: Anti-proliferative effect (CellTiter-Glo, 72 h), SUDHL5. Format: cell-based. The following applies: SUDHL5 cells, antiproliferation, median, read-out: Antiproli SUDHL5 [M] (median). An outline of the steps: as §1
The next series deals with MCL-1 (Homo sapiens, UniProt Q07820). The series can be described thus: Protein-protein interaction assay MCL-1/Noxa BH3 peptide (MCL-1 assay), TR-FRET. Format: binding. The following applies: MBP-MCL-1 / Noxa BH3-derived peptide, median. The procedure, abridged: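 MBP-MCL-1 (1 nM final) was preincubated 10 min at 22 °C with compounds (11 concentrations, 0.1 nM–20 μM, duplicates) in Tris pH 7 buffer with NaCl, KF, Tween-20, DTT and BGG. After 1 h at 22 °C in the dark plus overnight at 4 °C, anti-MBP Eu-cryptate/streptavidin-XL665 TR-FRET was read; IC50 came from a 4-parameter fit.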
Chain of MCL-1 (Q07820 whole entry): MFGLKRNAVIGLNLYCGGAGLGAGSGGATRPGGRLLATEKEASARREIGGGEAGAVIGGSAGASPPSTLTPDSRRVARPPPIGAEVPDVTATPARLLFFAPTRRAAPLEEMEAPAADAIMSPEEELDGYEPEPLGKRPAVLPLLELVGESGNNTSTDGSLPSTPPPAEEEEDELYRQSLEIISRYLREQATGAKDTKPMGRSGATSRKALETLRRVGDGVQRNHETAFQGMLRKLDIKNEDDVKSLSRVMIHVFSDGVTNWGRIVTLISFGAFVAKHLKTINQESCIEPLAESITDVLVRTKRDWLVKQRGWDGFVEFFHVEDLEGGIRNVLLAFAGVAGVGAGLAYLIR
In general terms: In TR-FRET formats the signal depends on donor and acceptor labels being close together.

Series [2] deals with SUDHL10. The series can be described thus: Induction of caspase-3/7 activity (Caspase-Glo 3/7), SUDHL10. Format: cell-based. The following applies: caspase-3/7 induction, SUDHL10 cells, 3 h treatment; median. An outline of the steps: (§2)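 Caspase-Glo 3/7 luminescence measured after 3 h compound exposure at 37 °C in SUDHL10 and SUDHL5 cells. EC50 values come from background-corrected signals, with curve bottom set to 1 and plateau set to maximal induction by the reference compound.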

The subject of another series is MV-4-11. Nature of the series: Anti-proliferative effect (CellTiter-Glo, 72 h), MV-4-11. Format: cell-based. Conditions: MV-4-11 cells, median, read-out: IC50 antiproliferation assay MV-4-11 [M] (median). An outline of the steps:
as §1

The subject of series [3] is SUDHL10. Nature of the series: Induction of cytotoxicity (CellTiter-Glo, 5 h), SUDHL10. Conditions: read-out: Cytotox SUDHL10 [M] (median), SUDHL10 cells, cytotoxicity induction, CellTiter-Glo, median.
The test system of series [4] is SUDHL5. Nature of the series: Induction of cytotoxicity (CellTiter-Glo, 5 h), SUDHL5. Conditions: read-out: Cytotox SUDHL5 [M] (median), SUDHL5 cells, cytotoxicity induction, CellTiter-Glo, median.
In series [5] the test system is SUDHL5. Nature of the series: Induction of caspase-3/7 activity (Caspase-Glo 3/7), SUDHL5. Format: cell-based. Conditions: caspase-3/7 induction, SUDHL5 cells, 3 h treatment; median. The procedure, abridged:
as §2

Several values for one entry are separate records, joined by “and”; a condition that tells them apart may be missing. Equal entries are not always repeated. Structures can show the parent of a compound that is named as a salt. Where two headings read alike, the source gives them in different places.

Take `CCc1nn(C)c2c1-c1c(C)ccc3c(C(C)CCOc4cccc5ccccc45)c(C(=O)O)n(c13)CCCCOC2` (single isomer, unassigned) [Example 273, 3-ethyl-1,4-dimethyl-7-[4-(naphthalen-1-yloxy)butan-2-yl]-1,10,11,12,13,15-hexahydropyrazolo[4′,3′:9,10][1,6]oxazacycloundecino[8,7,6-hi]indole-8-carboxylic Acid]: the IC50 in the series with A2780 is 4.18e-06 M; in the series on SUDHL5 [1] (72 h incubation), 3.74e-06 M; on MCL-1, 0.00589 µM; in the series on MV-4-11 it was 4.53e-06 M; in the series with SUDHL10 [3] (5 h incubation) it was 1.62e-05 M; in the series with SUDHL5 [4] (5 h incubation) it was 4.58e-06 M. In addition, the half-maximal effective concentration (EC50) (commonly the concentration that produces a half-maximal response) with SUDHL10 [2] amounted to 15.9 µM; in the series with SUDHL5 [5] it was 5.37 µM.

Turning to `CCc1nn(C)c2c1-c1c(C)ccc3c(C(C)CCOc4cccc5ccccc45)c(C(=O)O)n(c13)CCCCOC2` (single isomer, unassigned) [Example 274, 3-ethyl-1,4-dimethyl-7-[4-(naphthalen-1-yloxy)butan-2-yl]-1,10,11,12,13,15-hexahydropyrazolo[4′,3′:9,10][1,6]oxazacycloundecino[8,7,6-hi]indole-8-carboxylic Acid], the IC50 is 1.17e-05 M with A2780; 3.93e-06 M in the series on SUDHL5 [1] (72 h incubation); 1.56 µM at MCL-1; 8.02e-06 M in the series with MV-4-11; greater than 3.3e-05 M with SUDHL10 [3] (5 h incubation); greater than 3.3e-05 M in the series with SUDHL5 [4] (5 h incubation). The EC50 is 31.7 µM in the series on SUDHL10 [2] and greater than 33 µM with SUDHL5 [5].

`CCc1nn(C)c2c1-c1c(C)ccc3c(C(C)CCOc4cccc5ccccc45)c(C(=O)O)n(c13)CCCCOC2` (single isomer, unassigned) [Example 275, 3-ethyl-1,4-dimethyl-7-[4-(naphthalen-1-yloxy)butan-2-yl]-1,10,11,12,13,15-hexahydropyrazolo[4′,3′:9,10][1,6]oxazacycloundecino[8,7,6-hi]indole-8-carboxylic Acid]: the IC50 is 7.02e-06 M with A2780; 3.33e-06 M with SUDHL5 [1] (72 h incubation); 3.97 µM against MCL-1; 4.52e-06 M in the series on MV-4-11; 2.83e-05 M in the series with SUDHL10 [3] (5 h incubation); greater than 3.3e-05 M with SUDHL5 [4] (5 h incubation). Moreover, the half-maximal effective concentration (EC50) was 21.6 µM in the series on SUDHL10 [2] and greater than 33 µM in the series on SUDHL5 [5].

As for `Cc1ccc2c(C(C)CCOc3cccc4cc(F)ccc34)c(C(=O)O)n3c2c1-c1c(nn(C)c1C)COCCCC3` (single isomer, unassigned) [Example 277, 7-{4-[(6-fluoronaphthalen-1-yl)oxy]butan-2-yl}-2,3,4-trimethyl-2,10,11,12,13,15-hexahydropyrazolo[4′3′:9,10][1,6]oxazacycloundecino[8,7,6-hi]indole-8-carboxylic Acid], the IC50 in the series on A2780 (Homo sapiens, A2780, 72 h) was 1.5e-05 M; with SUDHL5 [1] (72 h incubation) it was 2.05e-06 M; against MCL-1 it was 0.0013 µM; in the series with MV-4-11 (Homo sapiens, MV4-11, 72 h) it was 8.78e-06 M; in the series on SUDHL10 [3] (5 h incubation) it was 2.28e-06 M; with SUDHL5 [4] (5 h incubation), 2.1e-06 M. Further, the results for the EC50 in the series on SUDHL10 [2] and in the series with SUDHL5 [5] were 1.8 µM and 1.4 µM, respectively.

`Cc1ccc2c(C(C)CCOc3cccc4cc(F)ccc34)c(C(=O)O)n3c2c1-c1c(nn(C)c1C)COCCCC3` (single isomer, unassigned) [Example 278, 7-{4-[(6-fluoronaphthalen-1-yl)oxy]butan-2-yl}2,3,4-trimethyl-2,10,11,12,13,15-hexahydropyrazolo[4′,3′:9,10][1,6]oxazacycloundecino[8,7,6-hi]indole-8-carboxylic Acid]: the IC50 in the series on A2780 is 1.26e-05 M; in the series with SUDHL5 [1] (72 h incubation) it was 1.19e-05 M; against MCL-1, 0.142 µM; in the series with MV-4-11, 1.49e-05 M; with SUDHL10 [3] (5 h incubation), greater than 3.3e-05 M; in the series on SUDHL5 [4] (5 h incubation), 2.48e-05 M. In addition, the EC50 was greater than 33 µM in the series with SUDHL10 [2] and 26.3 µM with SUDHL5 [5].

For the compound `Cc1ccc2c(C(C)CCOc3cccc4cc(F)ccc34)c(C(=O)O)n3c2c1-c1c(nn(C)c1C)COCCCC3` (single isomer, unassigned) [Example 279, 7-{4-[(6-fluoronaphthalen-1-yl)oxy]butan-2-yl}-2,3,4-trimethyl-2,10,11,12,13,15-hexahydropyrazolo[4′,3′:9,10][1,6]oxazacycloundecino[8,7,6-hi]indole-8-carboxylic Acid], the IC50 came out at 7.5e-06 M in the series with A2780; 7.56e-06 M in the series with SUDHL5 [1] (72 h incubation); 1.6 µM against MCL-1; 1.57e-05 M in the series on MV-4-11; 2.94e-05 M in the series on SUDHL10 [3] (5 h incubation); 2.05e-05 M in the series on SUDHL5 [4] (5 h incubation). The values for the EC50 in the series with SUDHL10 [2] and in the series with SUDHL5 [5] were 26.6 µM and 25.5 µM, respectively.

With `Cc1ccc2c(C(C)CCOc3cccc4cc(F)ccc34)c(C(=O)O)n3c2c1-c1c(nn(C)c1C)COCCCC3` (single isomer, unassigned) [Example 280, 7-{4-[(6-fluoronaphthalen-1-yl)oxy]butan-2-yl}-2,3,4-trimethyl-2,10,11,12,13,15-hexahydropyrazolo[4′3′:9,10][1,6]oxazacycloundecino[8,7,6-hi]indole-carboxylic Acid], the IC50 in the series on A2780 was 8.02e-06 M; with SUDHL5 [1] (72 h incubation) it was 1.18e-05 M; at MCL-1, 0.194 µM; in the series on MV-4-11, 1.11e-05 M; in the series with SUDHL10 [3] (5 h incubation) it was 3.07e-05 M; with SUDHL5 [4] (5 h incubation) it was greater than 3.3e-05 M. Moreover, the EC50 in the series with SUDHL10 [2] is 32.4 µM; with SUDHL5 [5], greater than 33 µM.

As for `CCc1c2c(nn1C)COCCCCn1c(C(=O)O)c(CCCOc3cccc4cc(F)ccc34)c3cccc-2c31` (single isomer, unassigned) [Example 283], the IC50 turned out to be 1.5e-05 M with A2780; 8.33e-06 M in the series with SUDHL5 [1] (72 h incubation); 0.0444 µM at MCL-1; 1.46e-05 M in the series on MV-4-11; 3.05e-05 M with SUDHL10 [3] (5 h incubation); 2.17e-05 M in the series with SUDHL5 [4] (5 h incubation). The EC50 is greater than 33 µM with SUDHL10 [2]; 30.7 µM and > 33 µM in the series on SUDHL5 [5].

As for `Cc1c2c(nn1CCN1CCOCC1)COCCCCn1c(C(=O)O)c(CCCOc3cccc4cc(F)ccc34)c3cccc-2c31` (single isomer, unassigned) [Example 286, (−)-7-{3-[(6-fluoronaphthalen-1-yl)oxy]propyl}-3-methy-2-[2-(morpholin-4-yl)ethyl]-2,10,11,12,13,15-hexahydropyrazolo[4′,3′:9,10][1,6]oxazacycloundecino[8,7,6-hi]indole-8-carboxylic acid-N-ethylethanamine Salt], the IC50 was 1.26e-05 M in the series on A2780; 5.11e-06 M in the series with SUDHL5 [1] (72 h incubation); 0.0272 µM against MCL-1; 1.73e-05 M in the series on MV-4-11; greater than 3.3e-05 M in the series on SUDHL10 [3] (5 h incubation); 1.2e-05 M in the series with SUDHL5 [4] (5 h incubation). Further, the EC50 is greater than 33 µM in the series on SUDHL10 [2] and 11.8 µM in the series with SUDHL5 [5].

For `CCc1nn(C)c2c1-c1cccc3c(CCCOc4cccc5cc(F)ccc45)c(C(=O)O)n(c13)CCCCOC2` (single isomer, unassigned) [Example 289, (−)-3-ethyl-7-{3-[(6-fluoronaphthalen-1-yl)oxy]propyl}-1-methyl-1,10,11,12,13,15-hexahydropyrazolo[4′,3′:9,10][1,6]oxazacycloundecino[8,7,6-hi]indole-8-carboxylic Acid], the IC50 is 2.23e-05 M in the series on A2780; 1.05e-05 M in the series with SUDHL5 [1] (72 h); 0.106 µM at MCL-1; 1.89e-05 M with MV-4-11; greater than 3.3e-05 M with SUDHL10 [3] (5 h); 2.9e-05 M and > 3.3e-05 M in the series on SUDHL5 [4] (5 h). Also, the EC50 in the series on SUDHL10 [2] and with SUDHL5 [5] was greater than 33 µM in each case.
